# Reference: patent US9808470B2, “Estrogenic components for use in the treatment of neurological disorders” (UNIVERSITE DE LIEGE, priority 2012, dated 2017)
# Values joined by “and” are separate entries in the source; they are usually repeats but may differ in a detail not shown here. Equal values may be shown once.
# How the values were obtained:
# [1] = test system: glial fibrillary acidic protein (GFAP); assay: Ex.4 therapeutic HIE rat model: blood serum GFAP ELISA; assay type: in vivo; settings: estetrol treated animals (1, 5, 10, 50 mg/kg single ip dose after HI); PND14; vs vehicle
# Protocol: Blood was withdrawn, centrifuged and the serum samples were stored at −80° C.
# ELISAs for detecting the brain damage markers S100B protein (Catalog# CSB-E08066r, Cusabio Biotech Co., LTD, China), and glial fibrillary acidic protein (GFAP) (Catalog# E90068Ra, Uscn Life sciences Inc., China) in blood serum samples were performed according to the manufacturers' recommendations.
# To study the therapeutic effect of estetrol, newborn rat pups were assigned to one of the following 6 groups at postnatal day 7: sham group (n=29), vehicle group (n=20), 1 mg/kg E4 group (n=16), 5 mg/kg E4 group (n=19), 10 mg/kg day E4 (n=17) and 50 mg/kg day E4 group (n=15). At postnatal day 7 animals were anesthetized with isoflurane (induction, 3.0%; maintenance, 1.5%), and the rat pups from vehicle and E4 groups passed through surgery encompassing left common carotid artery double ligation and cut. After surgery, the pups were returned to their dams and allowed to recover for 1 hour. The pups were then placed in a humidified hypoxic in vivo cabinet (CoyLab). Hypoxia was produced by the inhalation of 11%-8% of oxygen balanced by nitrogen at decreased concentration of oxygen for 20 minutes, followed by inhalation of 8% oxygen and 92% nitrogen at constant concentration for 35 minutes. All the manipulations were performed at 37° C. […]
# [2] = Ex.4 therapeutic HIE rat model: brain weight; assay type: in vivo; settings: PND14
# Protocol: Animals were then perfused transcardially with 0.9% saline solution at 4° C., and then with 4% paraformaldehyde in a 0.1-mol/L phosphate-buffered saline solution (pH 7.4) at 4° C. The brains were quickly isolated, weighed and immersed in the same fixative solution at 4° C. for 24 hours, dehydrated with a graded series of ethanol and xylene, and embedded in paraffin.
# (§1) To study the therapeutic effect of estetrol, newborn rat pups were assigned to one of the following 6 groups at postnatal day 7: sham group (n=29), vehicle group (n=20), 1 mg/kg E4 group (n=16), 5 mg/kg E4 group (n=19), 10 mg/kg day E4 (n=17) and 50 mg/kg day E4 group (n=15). At postnatal day 7 animals were anesthetized with isoflurane (induction, 3.0%; maintenance, 1.5%), and the rat pups from vehicle and E4 groups passed through surgery encompassing left common carotid artery double ligation and cut. After surgery, the pups were returned to their dams and allowed to recover for 1 hour. The pups were then placed in a humidified hypoxic in vivo cabinet (CoyLab). Hypoxia was produced by the inhalation of 11%-8% of oxygen balanced by nitrogen at decreased concentration of oxygen for 20 minutes, followed by inhalation of 8% oxygen and 92% nitrogen at constant concentration for 35 minutes. All the manipulations were performed at 37° C.
# (§2) Upon retrieval from the hypoxia chamber the rat pups were injected intraperitoneally either by vehicle (vehicle group) or by E4 (1 mg/kg, 5 mg/kg, 10 mg/kg or 50 mg/kg) in accordance to the group assignment. The animals from the sham group went through similar procedures but proceeded neither left common carotid artery ligation and cut followed by hypoxia nor vehicle or estetrol administration. Rat pups recovered with their dams until being sacrificed at postnatal day 14.
# [3] = octanol-water; depending on experimental settings; listed as estetrol; cited from earlier work
# [4] = test system: intact cells in hippocampus and cortex; assay: Ex.3 neuroprotective HIE rat model: intact cell counting; assay type: in vivo
# Protocol: Paraformaldehyde-fixed paraffin embedded samples of the removed brains were coronally sectioned at the same level of the hippocampus region in accordance to the Paxinos rat brain atlas (Paxinos and Watson 2007. In: The rat brain in stereotaxic coordinates, 6th edition). Thickness of sections was 5 μm. Hematoxylin-eosin staining was performed. Briefly, sections were deparaffinized in xylene and rehydrated in graded ethanol concentrations before staining. Slides were stained with hematoxylin, rinsed for a few seconds in water, then placed in 1% eosin and washed, dehydrated, and coverslipped.
# Intact cell counting was performed on hematoxylin-eosin-stained sections of the rat pups brains at magnification 400× in 3 fields of the respective brain area. Countings were performed in cortex and hippocampus (regions: dentate gyrus (DG), subgranular zone (SGZ), cornu ammonis (CA1, CA2/CA3)). The sections were analyzed with the aid of a microscope (Olympus BX51, Olympus, Tokyo, Japan), an image scanner (DotSlide Digital Virtual Microscopy, Olympus, Germany) and ImageJ software (NIH, US).
# Intact cells are uninjured. Injured cells are characterized by a pale eosinophilic staining along with non-uniform nuclear densities-shrunken, condensed, or pale and enlarged.
# Newborn rat pups were assigned to one of the following 6 groups from postnatal day 4: Sham group (n=24), Vehicle group (n=14), E4 1 mg/kg/per day group (n=11), E4 5 mg/kg/per day group (n=14), E4 10 mg/kg/per day group (n=14), or E4 50 mg/kg/per day group (n=19). From postnatal day 4, rat pups were intraperitoneally injected either vehicle (Vehicle group) or E4 (1, 5, 10, or 50 mg/kg/per day in accordance to the E4 group assignment) or neither vehicle nor E4 (Sham group). At day 7, 30 minutes after last injection, animals were anesthetized with isoflurane (induction, 3.0%; maintenance, 1.5%), and the rat pups from Vehicle and E4 groups passed through surgery encompassing left common carotid artery double ligation and cut. After the procedure, the pups were returned to their dams and were allowed to recover for 1 hour. The pups were then placed in the humidified hypoxic in vivo cabinet (CoyLab, Grass Lake, Mich., USA). Hypoxia was produced by the inhalation of 11%-8% of oxygen balanced by nitrogen at decreased concentration of oxygen for 20 minutes, followed by inhalation of 8% oxygen and 92% nitrogen at constant concentration for 35 minutes. All the manipulations were performed at 37° C. The Sham group went through similar procedures without left common carotid artery ligation followed by hypoxia nor injection. Rat pups recovered with their dams and reared normally until being sacrificed at postnatal day 14.
# [5] = test system: Microtubule-associated protein 2 (MAP2); assay: Ex.4 therapeutic HIE rat model: MAP2 staining; assay type: in vivo; settings: PND14
# Protocol: The brain sections were processed for immunohistochemical detection of neuronal cytoskeletal disruption. For antigen retrieval, the sections were heated in 10 mmol/L citrate buffer (pH 6.0) at 100° C. for 10 minutes. Endogenous peroxidase activity was blocked with 3% hydrogen peroxide for 10 minutes and after a second blocking with 5% normal goat serum, the sections were incubated with anti-microtubule-associated protein 2 (MAP2) antibody, diluted 1:1000 (mouse monoclonal antibody; Sigma, St. Louis, Mo., US) 1 h at room temperature. After rinsing, biotinylated goat anti-mouse immunoglobulin G (Vector Laboratories, Burlingame, Calif.) was added, and antibody detection was performed with the avidin-biotin complex method (Vector Laboratories), with 3,3′-diaminobenzidine (DAB) as the chromogen. Following the reaction with DAB, the slides were washed, dehydrated, and coverslipped.
# Samples were analyzed with the aid of an image scanner (Nanozoomer Virtual Microscopy, Hamamatsu, Tokyo, Japan) and the ImageJ software (NIH, US). The MAP2 positive areas in the ipsilateral and contralateral hemispheres were measured. The ratio of the MAP2 positive areas was calculated as the MAP2 positive area of the ipsilateral hemisphere divided by the MAP2 positive area of the contralateral hemisphere. The ratio of the MAP2 positive area in the Sham group was considered by default as 1.0.
# as §1, §2
# [6] = test system: cytosolic estrogen receptors; settings: competitive receptor binding, relative to E2; cited from earlier work
# [7] = 1 mg/kg E4 single ip dose after HI
# [8] = 5 mg/kg E4 single ip dose after HI
# [9] = 10 mg/kg E4 single ip dose after HI
# [10] = 50 mg/kg E4 single ip dose after HI
compound,measurement,setting,value
"C[C@]12CC[C@@H]3c4ccc(O)cc4CC[C@H]3[C@@H]1[C@@H](O)[C@@H](O)[C@@H]2O [E4, 1,3,5(10)-estratrien-3,15α,16α,17β-tetrol]",expression of GFAP protein in blood serum,[1],significantly lower expression
same,brain weight,[2]; [7],1.099 ± 0.037 g
same,brain weight,[2]; [8],1.06 ± 0.035 g
same,brain weight,[2]; [9],1.12 ± 0.33 g
same,brain weight,[2]; [10],1.163 ± 0.025 g
same,Pow Log,[3],1.47 and 1.695
same,number of intact cells per visual field,"[4]; 1 mg/kg E4 ip PND4-7 before HI, CA1",43.2±2.435
same,number of intact cells per visual field,"[4]; 1 mg/kg E4 ip PND4-7 before HI, CA2/CA3",32.8±2.808
same,number of intact cells per visual field,"[4]; 1 mg/kg E4 ip PND4-7 before HI, SGZ",35.6±2.75
same,number of intact cells per visual field,"[4]; 5 mg/kg E4 ip PND4-7 before HI, DG",121.0±8.098
same,number of intact cells per visual field,"[4]; 5 mg/kg E4 ip PND4-7 before HI, SGZ",42.846±3.884
same,number of intact cells per visual field,"[4]; 10 mg/kg E4 ip PND4-7 before HI, CA1",57.4±4.566
same,number of intact cells per visual field,"[4]; 10 mg/kg E4 ip PND4-7 before HI, SGZ",47.6±4.672
same,number of intact cells per visual field,"[4]; 50 mg/kg E4 ip PND4-7 before HI, CA2/CA3",53.0±4.7
same,number of intact cells per visual field,"[4]; 50 mg/kg E4 ip PND4-7 before HI, SGZ",30.714±3.615
same,number of intact cells per visual field,"[4]; 50 mg/kg E4 ip PND4-7 before HI, cortex",76.286±3.962
same,ratio of MAP2-positive area (ipsilateral/contralateral),[5]; [7],0.943±0.028
same,ratio of MAP2-positive area (ipsilateral/contralateral),[5]; [8],0.89±0.037
same,ratio of MAP2-positive area (ipsilateral/contralateral),[5]; [9],0.938±0.044
same,ratio of MAP2-positive area (ipsilateral/contralateral),[5]; [10],0.966±0.036
same,values for cytosolic estrogen receptor binding,[6],0.015
